Source: patent publication US8445461B2, “Pharmaceutical composition for meniere's disease” (Setsuko Takeda, priority 2007, dated 2013)
Where “and” joins values, the source holds several entries; their conditions need not be identical. Equal entries are not always repeated. Where two headings read alike, the source gives them in different places.

Columns and labels:
[1] = tested on: guinea pigs of normal Prayer's reflex; settings: cited from earlier work; for Plasma AVP: continuous subcutaneous administration
[2] = tested on: experimental endolymphatic hydrops; assay: Endolymphatic hydrops decompression effect: IR-L, IR-S and regression lines in the operated ear; format: in vivo, guinea pigs; settings: active agent 2.8 g/kg oral, alone or with additive; for Regression line IR-S vs IR-L: Y-intercept / Regression line IR-S vs IR-L: slope: operated ears, 3 hours after; for IR-L (%) increase ratio of the length of Reissner's membrane / IR-S (%) increase ratio of the cross-sectional area of the scala media: operated side, perfusion 3 hours after
Method: The endolymphatic hydrops-decompression effect of saccharides or sugar alcohols was evaluated by assaying as below in triplicate. Firstly, guinea pigs received the surgical obliteration of the endolymphatic sac in the left ear to prepare “experimental model animals with endolymphatic hydrops”. The surgical obliteration of the endolymphatic sac was carried out by burning the extraskeletal portion in the endolymphatic sac with a bipolar electrocoagulator. An endolymphatic sac plays an important role in the absorption of endolymphatic fluid. The inhibition of absorption of endolymphatic fluid was caused by burning the endolymphatic sac to prepare an experimental endolymphatic hydrops. Those hydrops are progressively formed. The size of hydrops becomes constant 2 weeks to month after the surgery and maintained for several months. In detail, see Non-patent Reference 8 for the surgery.
After 1 month, they were divided into 3 groups: Group 2-1 (groups 1-6), 60 animals; Group 2-2 (groups 7-10), 40 animals; and Group 2-3 (groups 11-20), […]. The animals in Group 2-1 received saccharides or sugar alcohols alone (Reference Example 5). The animals in Group 2-2 orally received saccharides or sugar alcohols added polysaccharides. The animals in Group 2-3 received other combinations of saccharides or sugar alcohols added polysaccharides. Animals were sacrificed after the oral administration and the observation and the assessment the gastrointestinal condition, and observed the morphological change of the cochlea mainly in the operated side (left side), in particular of the endolymphatic hydrops decompression effect.
I were obtained left sides of the temporal bones immediately following fixation and kept them in 10% formalin solution for 10 days or more. They were decalcified with 5% trichloroacetic acid and dehydrated with alcohol in increasing concentration, then embedded in paraffin and celloidin. The prepared blocks were cut serially in the horizontal plane. The mid-modiolar sections were stained in hematoxylin and eosin and studied under a light microscope. For the quantitative assessment of changes of the endolymphatic space, the change ratios of the length of Reissner's membrane and the cross-sectional area of the scala media in each turn were measured from the mid-modiolar sections of the cochlea.
From these parameters, the increase ratios (%) of the length of Reissner's membrane (IR-L) and the cross-sectional area (%) of the scala media (IR-S) of a total of four turns were calculated according to the equation as described below:
The increase ratio of the length of Reissner's membrane (IR-L)=100×Σ(Lx−L*x)/ΣL*x (x: first, second, third and fourth turns)
The increase ratio of the cross-section area of the scala media (IR-S)=100×Σ(Sx−S*x)/ΣS*x (x: first, second, third and fourth turns)
Since almost no difference is shown in the regression lines of each group, it cannot be understood that there is the decompression effect of erythritol alone. When endolymphatic hydrops is formed, the cross-sectional area of scala media and the length of Reissner's membrane will increase. It can be assumed from FIG. 1 that there is statistically a primary correlation between both of them in the operated side in the control group. The regression lines are; IR-S (distilled water)=4.011+1.212*IR-L (distilled water); R2=0.987, IR-S (1 hour after)=5.409+1.1*IR-L (1 hour after); R2=0.903, IR-S (2 hours after)=1.125+0.992*IR-L (2 hours after); R2=0.98, IR-S (3 hours after)=2.407+1.309*IR-L (3 hours after); R2=0.974, IR-S (6 hours after)=7.36+1.147*IR-L (6 hours after); R2=0.895, IR-S (12 hours after)=8.089+1.152*IR-L (12 hours after); R2=0.918.
The difference of decompression effect on endolymphatic hydrops depending on dose of pectin added and time-course of the decompression effect can hardly determined by comparing and analyzing the average and standard deviation of IR-L and IR-S in the operated side in each groups. […]

endolymphatic space = settings: cited from earlier work; for Morphological change in the normal ear: glycerol 2.8 g/kg oral
[3] = tested on: guinea pigs excreting normal feces; assay: Antidiarrheal effect: observation of feces after oral administration of saccharides or sugar alcohols with or without polysaccharides (Example 1); format: in vivo
Method: The criteria for analyzing the conditions of feces (hardness, shape and spaces of feces in the intestine) are as shown in Table 2:
The hardness and microscopic findings of feces from the group administered with distilled water were assessed as “Normal” scoring 3, the feces having normal shape and the shape could rather easily change by pushing with fingers were assessed as “Slightly soft” scoring 2, those of which the shape had already changed or it could quite easily change by pushed with fingers were assessed as “Soft” scoring 1, and those of which the shape is muddy or watery or of no shape were assessed “Muddy” scoring 0. To be precese, there are no watery feces because of the nature of diets and thus the muddy feces correspond to watery and muddy feces in human.
Since the muddy feces comprise large content of water, they induce the high abdominal pressure and the flatulence and distension. […] In the case of gas generation, it appears that noxious symptom such as the flatulence and distension are synergistically deteriorated. Therefore, we assessed not only based on the hardness of feces, but also the size, smoothness of the surface and amount of feces.
In these experiments, I observed is the diarrhea caused by saccharides or sugar alcohols and antidiarrhreal effect of saccharides. Guinea pigs orally received saccharides or sugar alcohols, for example tetrose such as erythritol, pentose such as xylitol or xylose, hexose such as isosorbitol or the like in combination with or without polysaccharides for observation of the feces up to 6 hours after the administration.
Guinea pigs (body weight 280 to 320 g, normal feces) were divided into four groups: for Group 1-a, xylitol alone (Reference Example 1), or xylitol and xanthan gum or pectin; for Group 1-b, xylose alone (Reference Example 2), xylose and xanthan gum or pectin; for Group 1-c, erythritol alone (Reference Example 3), erythritol and pectin, erythritol and xanthan gum, or erythritol, pectin and natural aluminum silicate gel or calcium carbonate; and for Group 1-d, isosorbitol alone (Reference Example 4), or isosorbitol and xanthan gum or pectin were orally administered, respectively. The compounds are dissolved in distilled water and 8 ml/kg of said solution were administered as a single dose.
The feces were observed during 6 hours after the administration. When the animals fell into the most serious condition, the hardness and shape of the feces from said animals were assessed as the effect by saccharides or sugar alcohols in the animals.

[4] = saccharide or sugar alcohol 2.8 g/kg oral, alone or with additive, feces observed for 6 hours
[5] = active agent 1.4 g/kg oral, within 6 hours
[6] = active agent 2.1 g/kg oral, within 6 hours
[7] = active agent 2.8 g/kg oral, alone or with additive of the label
[8] = active agent 2.8 g/kg oral, alone or with additives of the label, most serious condition within 6 hours

Structure (SMILES) | Regression line IR-S vs IR-L: Y-intercept [2] | Regression line IR-S vs IR-L: slope [2] | IR-L (%) increase ratio of the length of Reissner's membrane [2] [%] | IR-S (%) increase ratio of the cross-sectional area of the scala media [2] [%] | Hardness of feces 0 (Muddy): number of animals [3, 4] | Hardness of feces 1 (Soft): number of animals [3, 4] | Hardness of feces 3 (Normal): number of animals [3, 4] | Hardness of feces: Muddy (number of animals) [3, 8] | Hardness of feces: Normal (number of animals) [3, 8] | Hardness of feces: Slightly soft (number of animals) [3, 8] | Hardness of feces: Soft (number of animals) [3, 8] | further results
NC(=O)CC[C@@H]1NC(=O)[C@H](Cc2ccccc2)NC(=O)[C@H](Cc2ccc(O)cc2)NC(=O)[C@@H](N)CSSC[C@@H](C(=O)N2CCC[C@H]2C(=O)N[C@@H](CCCN=C(N)N)C(=O)NCC(N)=O)NC(=O)[C@H](CC(N)=O)NC1=O [AVP, arginine vasopressin] | – | – | – | – | – | – | – | – | – | – | – | Plasma AVP ([1]; AVP 0.2 mU/kg/min): 2.2 ± 0.4 pg/mL; Increase ratio (%) of the cross-sectional area of the scala media ([1]; AVP 0.2 mU/kg/min): 4.4 ± 0.7%; Plasma AVP ([1]; AVP 0.4 mU/kg/min): 3.5 ± 1.8 pg/mL; Increase ratio (%) of the cross-sectional area of the scala media ([1]; AVP 0.4 mU/kg/min): 10.4 ± 1.8%; Plasma AVP ([1]; AVP 1.0 mU/kg/min): 14.0 ± 3.9 pg/mL; Increase ratio (%) of the cross-sectional area of the scala media ([1]; AVP 1.0 mU/kg/min): 17.4 ± 7.9%; Formation of endolymphatic hydrops ([1]; AVP 1 mU/kg/minute, continuous, mini-pump subcutaneously): apparently produced endolymphatic hydrops
OCC(O)CO [Gly alone, glycerol] | −2.455 | 0.887 | 37.4 ± 31.2 | 31.0 ± 27.5 | – | – | – | – | – | – | – | Morphological change in the normal ear (endolymphatic space; 2 hours after): collapse; Morphological change in the normal ear (endolymphatic space; 6 hours after): mild hydrops; Time until exertion of effect after the oral administration (endolymphatic space; oral): about 2 hours
OC[C@@H](O)[C@@H](O)[C@H](O)[C@@H](O)CO [Sorbitol, sorbitol] | – | – | – | – | 2 and 3 | 2 | 0 | – | – | – | – | –
OC[C@@H](O)[C@H](O)[C@@H](O)CO [Xylitol, xylitol] | 2.371 | 1.208 | 48.6 ± 40.3 | 60.1 ± 48.9 | – | – | – | 3 | 0 | 1 | 1 | Hardness of feces: Muddy (number of animals) [3, 5]: 0; Hardness of feces: Normal (number of animals) [3, 5]: 5; Hardness of feces: Slightly soft (number of animals) [3, 5]: 0; Hardness of feces: Soft (number of animals) [3, 5]: 0; Hardness of feces: Muddy (number of animals) [3, 6]: 0; Hardness of feces: Normal (number of animals) [3, 6]: 4; Hardness of feces: Slightly soft (number of animals) [3, 6]: 1; Hardness of feces: Soft (number of animals) [3, 6]: 0; Time after administration of the peak (most serious) diarrhea [3, 7]: Three to four hours after the administration; Time after administration when diarrhea / softening of feces started [3, 7]: 2 h; Time after administration when feces recovered to (almost) normal [3, 7]: 6 h
O=C[C@H](O)[C@@H](O)[C@H](O)CO [Xylose, xylose] | 1.197 | 1.364 | 29.7 ± 21.3 | 41.7 ± 30.1 | – | – | – | 1 | 0 | 1 | 3 | Abdominal distension / gas by inspections and palpations [3, 7]: mild or moderate flatulence and distension
OC[C@@H](O)[C@@H](O)[C@H](O)[C@H](O)CO [mannitol] | – | – | – | – | 1 | 2 | 0 | – | – | – | – | Hardness of feces 2 (Slightly soft): number of animals [3, 4]: 1
